Results on four compounds are retold here after paper PMC10056257 (Journal of medicinal chemistry, 2023).

Series [1] deals with Anaerostipes caccae DSM 14662. In words: MIC against anaerobic bacteria. As to conditions: A. caccae DSM 14662, anaerobic. It is filed as cell-based.
For series [2], the system named is Acinetobacter baumannii 2208. Description: MIC, broth microdilution. It is filed as cell-based. Particulars: A. baumannii 2208. (In general: Dilution methods test growth across graded concentrations, often in twofold steps.)
In series [3] the test system is Bacteroides thetaiotaomicron DSM 2079. Description: MIC against anaerobic bacteria. It is filed as cell-based. As to conditions: B. thetaiotaomicron DSM 2079, anaerobic.
The test system of series [4] is E. coli nonpathogenic ATCC MG1655. Description: MIC determination. Format: cell-based, Escherichia coli.
A further series has as its system Escherichia coli K12. In words: MIC, broth microdilution. It is filed as cell-based. Particulars: E. coli K12.
In series [5] the test system is Lactobacillus plantarum DSM 20174. In words: MIC against L. plantarum. Particulars: L. plantarum DSM 20174. Format: cell-based.
The next series has as its system S. aureus USA 300 JE2. Description: MIC, broth microdilution. It is filed as cell-based, Staphylococcus aureus.
A short description of series [6]: Simulated intestinal fluid stability. As to conditions: SIF pH 7.60 with pancreatin, 24 h. Format: in vitro ADME.
For series [7], the system named is Lactobacillus rhamnosus CGMCC 1.3724. In words: MIC against L. rhamnosus. Format: cell-based. Particulars: L. rhamnosus CGMCC 1.3724.
Series [8] deals with Pseudomonas aeruginosa PA01. In words: MIC, broth microdilution. As to conditions: P. aeruginosa PA01. It is filed as cell-based.
Series [9] has as its system Methicillin-resistant S. aureus (MRSA) ClpX. As to conditions: read-out: IC50, ClpX ATPase activity; cited from earlier work.
In another series the test system is S. typhimurium TA100. As to conditions: positive control, TA100, S9−, 2.5 μg/plate.

Marks after values point to notes of the source that are not given here.

Turning to `N#Cc1ccccc1C1Sc2ccccc2NC2=C1C(=O)c1ccccc12` (stereo not shown) [5a, 2-(12-Oxo-11,12-dihydro-5H-benzo[b]indeno[1,2-e][1,4]thiazepin-11-yl)benzonitrile], the MIC entry is “completely inactive” in series [1]; “inactive” in series [2]; “completely inactive” in series [3]; “completely inactive” in [4]; “inactive” with Escherichia coli K12; “no antibacterial activity” in series [5]. Moreover, the MIC entry in the series with S. aureus USA 300 JE2 was “inactive”; in series [7] it was “no antibacterial activity”; in [8], “inactive”. Further, the “percentage of drug remaining” value in series [6] was “around 85%”.

As to `CC[C@H]1OC(=O)[C@H](C)[C@@H](O[C@H]2C[C@@](C)(OC)[C@@H](O)[C@H](C)O2)[C@H](C)[C@@H](O[C@@H]2O[C@H](C)C[C@H](N(C)C)[C@H]2O)[C@](C)(O)C[C@@H](C)CN(C)[C@H](C)[C@@H](O)[C@]1(C)O` [AZM, azithromycin, reference compound], in series [1], the MIC entry was “no susceptibility”.

The IC50 is the concentration at which inhibition is half-maximal. As to `O=C1C2=C(Nc3ccccc3SC2c2cccc(O)c2)c2ccccc21` (stereo not shown) [compound 334, 11-(3-Hydroxyphenyl)-5,11-dihydro-12H-benzo[b]indeno[1,2-e][1,4]thiazepin-12-one], the IC50 in [9] was 800 nM.

For Sodium azide, in the series with S. typhimurium TA100, the number of revertants/plate was 260.70 ± 15.30^e revertants/plate.
